Assay results from patent US20130012709A1, “NOVEL INHIBITORS OF STEAROYL-CoA-DESATURASE-1 AND THEIR USES” (CENTRE NATIONAL DE LA RECHERCHE SCIENTIFIQUE, priority 2009, published 2013).
Like-named read-outs stand apart in the source and are kept apart here.

Columns and labels:
[1] = system: LNCaP cells; assay: Flow cytometry analysis of cell cycle; type: cell-based, human; settings: 25 μM, 48 h; untreated cells 20
Experimental: (§1) Cells were then rinsed in PBS, pelleted at 400 g for 5 min and maintained on ice for 20 min before resuspension in a […] propidium iodide (Sigma) solution. Cells were kept overnight at 4° C. and the percentages of cells in G1, S and G2-M phases of the cell cycle were measured with a Coulter Epics XL™ flow cytometer (Becton Dickinson) using 488-nm laser excitation. For apoptosis experiment, MEFs were treated with the tested compound at 25 μM for 24 h, then rinced in PBS, pelleted at 400 g for 5 min and stained with annexinV-FITC (Roche Diagnostics, Meylan, France) for 15 min at 4° C. The percentage of annexin positive cells was immediately analysed using 488-nm laser excitation.

[2] = system: C4-2 cells; assay: Flow cytometry analysis of cell cycle; type: cell-based, human; settings: 25 μM, 48 h; untreated cells 22
Experimental: as §1

[3] = system: C4-2 cells; assay: MTT assay (cell viability); settings: 48 h
Experimental: (§2) After 48 h, medium was removed and 250 μl of a 5 mg/ml MTT (Sigma, St Louis, Mo., USA) solution in PBS was added to each well. After 4 h incubation at 37° C., the MTT solution was removed, 200 μl of DMSO (Sigma) was added and cells were incubated for 5 min. Two hundred microliters of each samples was distributed in 96-well plates for an optical density reading at 540 nm.

[4] = system: C4-2 cells; assay: Proliferation by BrDU incorporation
Experimental: (§3) LNCaP and C4-2 cells grown on coverslips were incubated for 4 hours with BrdU (100 μM final) at 24 hours and 48 hours following SCD-1 knock-down. Cells were then fixed and permeabilized with cold methanol for 10 min at −20° C. After 3 washes with PBS, DNA was denaturated with 4NHCL for 10 min at RT, and cells were incubated with blocking buffer (PBS-1% BSA). BrDU was then detected with anti-BrDU monoclonal antibody 1:50 (Dako, Carpinteria, Calif.) for 1 hour at 37° C. After 3 washes with PBS, cells were incubated with an FITC-conjugated anti-mouse secondary antibody 1:150 (Jackson Immunoresearch) for 30 min at 37° C., and slides were mounted in mowiol.

[5] = system: LNCaP cells; assay: Proliferation by BrDU incorporation; type: cell-based, human
Experimental: as §3

[6] = system: C4-2 cells
Experimental: as §2

[7] = system: SCD1 mRNA and protein; assay: SCD-1 knock-down by siRNA, mRNA and protein expression; type: cell-based, human
Experimental: For small interfering (si) RNA experiments, transfection of LNCaP or C4-2 cells was carried out with pre-designed ON-TARGET plus siRNA oligonucleotides control or targeting the human SCD-1 sequence GCACAUCAACUUCACCACA (Dharmacon, Lafayette, Co, USA).
Nucleofaction of cells with 2.5 μg siRNA were performed on 2×10^6 cells using Amaxa nucleofactor R kit (Lonza, Cologne, Germany). Twenty-four hours and 48 hours after transfection, cells were processed for cell proliferation by BrdU staining and harvested for RNA and protein analysis.
RNA was extracted with the use of TRI-Reagent (Euromedex, Mundolsheim, France) according to the manufacturers' recommendations. Reverse transcription of total RNA was performed at 37° C. using the M-MLV reverse transcriptase (Invitrogen) and random hexanucleotide primers (Promega, Madison, Wis.), followed by a 15 min inactivation at 70° C. Quantitative PCR was conducted using the primers specific for human SCD1 and SYBR Green Light Cycler Master Mix (Eurofins MWG Operon, Roissy CDG). […] Values are expressed as the relative mRNA level of specific gene expression as obtained using the formula 2^−(ΔCt).

## COc1ccc(Br)c(C(=O)N2CCN(S(=O)(=O)c3ccc(F)cc3)CC2)c1 [Example 2, 1-[(2-bromo-5-methoxybenzoyl)]-4-[(4-fluorophenyl)sulfonyl]piperazine]
[1]
  % LNCaP cells in phase S at 25 μM: 5%
[2]
  % C4-2 cells in phase S at 25 μM: 11.8%
[3]
  Viable C4-2 cells at 25 μM (% of control): 49 % of control
other
  melting point: 202 °C
[4]; Homo sapiens, C4-2, 48 h, read-out: % Inhibition of proliferation at 25 μM (BrDU) on C4-2
  inhibition at 25 µM: 37.2 ± 8.8%

## COc1ccc(Br)c(C(=O)N2CCN(S(=O)(=O)c3cccc(F)c3)CC2)c1 [Example 15, 1N-[(2-bromo-5-methoxybenzoyl)]-4N-[(3-fluorophenyl)sulfonyl]piperazine]
[5]; 25 μM, 48 h of treatment
  % Inhibition of proliferation at 25 μM (BrDU) on LNCaP: 0%
[6]
  Viable C4-2 cells at 25 μM (% of control): 83 % of control
[4]; 25 μM, 48 h of treatment
  % Inhibition of proliferation at 25 μM (BrDU) on C4-2: 35.7 ± 6%

## siRNA: pre-designed ON-TARGET plus siRNA oligonucleotides targeting the human SCD-1 sequence GCACAUCAACUUCACCACA (Dharmacon) (chemistry not given here) [reference compound]
[5]; LNCaP, siRNA
  proliferation after SCD-1 knock-down: marked decrease
[7]
  SCD1 mRNA and protein expressions: blocked
[4]; C4-2, siRNA
  proliferation after SCD-1 knock-down: marked decrease
